US20030118673A1, “Smilagenin and anzurogenin-D for the treatment of alzheimer's disease” (priority 1998, published 2003)

Legend:
[1] = test system: m2 receptors on CHO cells; experiment: Expression of m2 receptors on transfected CHO cells (tritiated QNB binding); type: cell-based, Chinese hamster; details: for Antagonism by tamoxifen of the increase in muscarinic receptor number: in the presence of tamoxifen; for Effect on receptor expression, given as % increase compared to control (negative values in brackets): DMSO control
Procedure: 1. Chinese hamster ovary (CHO) cells transfected with the a DNA fragment coding for a muscarinic receptor. The cell line used for the majority of the experiments was a cell line expressing the m2 receptor.
1 CHO cell line experiments The effects of various compounds on the expression of m2 receptors on CHO cells transfected with DNA for the m2 receptor were investigated. Receptor. numbers were assayed using tritiated QNB binding and subtracting non-specific binding. Compounds were dissolved in DMSO and DMSO was used as a control. Compounds were tested at a range of final concentrations. Compounds were also tested in the presence and absence of tamoxifen to try to distinguish an estrogen receptor mediated mechanism. The results are summarized in the Table 2 below, where the compounds used in the invention appear in bold, and data on other sapogenins is given for comparative purposes: […]

[2] = test system: muscarinic receptors on cardiac muscle cells; experiment: Muscarinic receptor expression on cultured neonatal cardiac muscle cells (tritiated QNB binding); type: cell-based, Sprague Dawley rats
Text: 3. Cultured cardiac muscle cells obtained from neonatal Sprague Dawley rats. The cardiac muscle cells express muscarinic receptors, typically m2. The level of these receptors falls on prolonged culture and the effects of compounds of interest in preventing the fall in receptor numbers was investigated.
3 Effects of compounds on cultured cardiac muscle cells. Cardiac muscle cells were isolated from the ventricular muscle of neonatal Sprague Dawley rats using standard techniques. Cells were cultured in vitro and muscarinic receptor numbers expressed on cell surfaces membrane fragments after homogenization of cells harvested at various time points were estimated using specific binding of tritiated QNB. […] The experiments were therefore designed to investigate the effects of the various compounds in inhibiting this decline in receptor numbers.

estrogen receptor = experiment: Estrogenic activity
Text: (§1) In identifying compounds that would have use in the treatment of SDAT and other diseases characterised by reductions in receptor numbers or synaptic transmission, the inventors have given consideration to the need to identify compounds that would have the desired effect but would be devoid of any estrogenic effects, as these would be unacceptable, particularly in male patients. A number of the compounds claimed to have activity in patent application DE 4303214A1 have marked estrogenic activity and are therefore unacceptable.

Progesterone receptor = target: T1, Progesterone receptor (Homo sapiens, UniProt P06401); experiment: Activity at progesterone receptor
T1 sequence (P06401 1-933): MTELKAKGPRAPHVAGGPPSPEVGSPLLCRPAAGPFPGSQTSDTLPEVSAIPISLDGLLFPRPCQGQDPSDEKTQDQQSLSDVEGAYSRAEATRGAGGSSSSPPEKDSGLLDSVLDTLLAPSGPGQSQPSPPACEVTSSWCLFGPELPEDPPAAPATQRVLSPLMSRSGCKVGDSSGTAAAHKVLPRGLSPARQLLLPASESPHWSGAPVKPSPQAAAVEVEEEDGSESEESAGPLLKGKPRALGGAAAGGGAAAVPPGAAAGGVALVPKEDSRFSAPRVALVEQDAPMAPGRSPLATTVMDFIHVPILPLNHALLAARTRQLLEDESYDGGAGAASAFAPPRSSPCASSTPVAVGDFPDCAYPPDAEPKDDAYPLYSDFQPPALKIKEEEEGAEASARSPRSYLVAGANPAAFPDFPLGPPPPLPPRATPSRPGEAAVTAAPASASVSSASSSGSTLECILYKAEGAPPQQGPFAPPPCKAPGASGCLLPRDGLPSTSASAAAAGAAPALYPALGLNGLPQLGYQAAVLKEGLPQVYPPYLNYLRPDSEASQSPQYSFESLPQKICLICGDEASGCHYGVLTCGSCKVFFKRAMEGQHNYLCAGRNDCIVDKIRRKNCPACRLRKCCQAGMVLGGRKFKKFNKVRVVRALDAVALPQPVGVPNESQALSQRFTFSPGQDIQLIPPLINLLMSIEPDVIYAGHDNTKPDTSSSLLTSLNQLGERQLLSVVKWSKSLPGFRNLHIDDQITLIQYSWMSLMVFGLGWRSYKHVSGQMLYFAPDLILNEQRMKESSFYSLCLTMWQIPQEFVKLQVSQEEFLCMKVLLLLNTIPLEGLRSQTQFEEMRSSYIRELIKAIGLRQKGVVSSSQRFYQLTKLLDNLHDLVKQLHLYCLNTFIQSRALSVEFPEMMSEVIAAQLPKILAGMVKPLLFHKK
Text: as §1

Glucocorticoid receptor = target: T2, Glucocorticoid receptor (Homo sapiens, UniProt P04150); experiment: Activity at glucocorticoid receptor
T2 sequence (P04150 1-777): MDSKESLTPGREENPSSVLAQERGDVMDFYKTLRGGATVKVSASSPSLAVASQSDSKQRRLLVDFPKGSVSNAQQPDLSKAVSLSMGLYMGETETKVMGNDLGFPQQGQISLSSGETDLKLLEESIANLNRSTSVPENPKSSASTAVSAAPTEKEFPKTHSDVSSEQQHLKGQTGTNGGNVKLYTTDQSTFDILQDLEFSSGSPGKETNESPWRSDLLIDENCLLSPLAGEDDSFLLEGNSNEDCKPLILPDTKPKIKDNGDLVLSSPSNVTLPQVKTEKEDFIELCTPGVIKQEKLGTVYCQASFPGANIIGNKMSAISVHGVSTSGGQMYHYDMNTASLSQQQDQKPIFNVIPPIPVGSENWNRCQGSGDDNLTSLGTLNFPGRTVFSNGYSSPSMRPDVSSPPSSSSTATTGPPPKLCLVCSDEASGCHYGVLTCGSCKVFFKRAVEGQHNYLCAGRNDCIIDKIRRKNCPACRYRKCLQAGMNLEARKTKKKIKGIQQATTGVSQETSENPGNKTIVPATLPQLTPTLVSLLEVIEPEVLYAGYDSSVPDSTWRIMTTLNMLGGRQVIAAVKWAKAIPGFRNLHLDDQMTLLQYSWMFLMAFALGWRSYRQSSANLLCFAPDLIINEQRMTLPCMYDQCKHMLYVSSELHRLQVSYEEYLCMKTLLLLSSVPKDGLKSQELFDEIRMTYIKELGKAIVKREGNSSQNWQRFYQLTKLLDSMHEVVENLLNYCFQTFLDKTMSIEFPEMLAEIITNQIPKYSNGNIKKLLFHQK
Text: as §1

Testosterone receptor = target: T3, Testosterone receptor (Homo sapiens, UniProt P10275); experiment: Activity at testosterone receptor
T3 sequence (P10275 1-920): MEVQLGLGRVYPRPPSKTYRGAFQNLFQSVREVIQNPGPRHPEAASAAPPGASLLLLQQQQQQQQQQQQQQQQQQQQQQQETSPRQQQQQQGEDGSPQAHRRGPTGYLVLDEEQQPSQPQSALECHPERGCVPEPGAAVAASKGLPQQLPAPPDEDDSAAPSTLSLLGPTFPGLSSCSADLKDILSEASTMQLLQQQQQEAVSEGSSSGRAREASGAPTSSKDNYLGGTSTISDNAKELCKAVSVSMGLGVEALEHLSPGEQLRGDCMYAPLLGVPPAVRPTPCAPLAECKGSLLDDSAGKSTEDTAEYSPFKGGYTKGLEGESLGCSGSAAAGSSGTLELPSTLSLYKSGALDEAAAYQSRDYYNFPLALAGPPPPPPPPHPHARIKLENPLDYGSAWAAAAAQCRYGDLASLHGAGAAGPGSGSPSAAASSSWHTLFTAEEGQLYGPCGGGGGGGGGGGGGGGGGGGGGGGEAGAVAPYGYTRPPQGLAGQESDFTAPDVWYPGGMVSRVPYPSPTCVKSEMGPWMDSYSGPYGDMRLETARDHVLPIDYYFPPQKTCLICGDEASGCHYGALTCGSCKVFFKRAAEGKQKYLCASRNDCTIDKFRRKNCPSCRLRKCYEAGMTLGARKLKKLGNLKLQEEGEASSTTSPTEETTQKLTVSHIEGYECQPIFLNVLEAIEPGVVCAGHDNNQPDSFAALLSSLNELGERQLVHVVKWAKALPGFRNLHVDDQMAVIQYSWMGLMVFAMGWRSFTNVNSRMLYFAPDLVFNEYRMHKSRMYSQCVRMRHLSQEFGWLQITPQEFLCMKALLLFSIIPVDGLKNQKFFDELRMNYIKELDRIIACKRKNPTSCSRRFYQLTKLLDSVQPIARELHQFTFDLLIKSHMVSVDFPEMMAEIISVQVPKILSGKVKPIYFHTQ
Text: as §1

[3] = molar concentration of compound 10^−5

Sequence of m2 receptors on CHO cells (P08172 whole entry, the tested form may be a part): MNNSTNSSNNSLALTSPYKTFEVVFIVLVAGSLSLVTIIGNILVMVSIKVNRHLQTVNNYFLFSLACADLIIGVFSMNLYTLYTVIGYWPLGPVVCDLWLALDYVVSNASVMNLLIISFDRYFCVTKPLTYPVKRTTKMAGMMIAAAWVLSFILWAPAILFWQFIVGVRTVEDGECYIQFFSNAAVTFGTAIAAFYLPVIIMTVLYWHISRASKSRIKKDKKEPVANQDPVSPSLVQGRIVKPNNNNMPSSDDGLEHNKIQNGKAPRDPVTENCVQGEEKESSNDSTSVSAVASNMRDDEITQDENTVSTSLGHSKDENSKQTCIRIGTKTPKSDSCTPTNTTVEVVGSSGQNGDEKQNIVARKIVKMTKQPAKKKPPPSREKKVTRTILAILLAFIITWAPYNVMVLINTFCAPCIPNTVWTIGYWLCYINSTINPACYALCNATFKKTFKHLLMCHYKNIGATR

| Compound | Antagonism by tamoxifen of the increase in muscarinic receptor number [1] | Effect on receptor expression, given as % increase compared to control (negative values in brackets) [1, 3] [%] | Effect on receptor expression, given as % increase compared to control (negative values in brackets) ([1]; molar concentration of compound 10^−6) [%] | Concentration of compound causing a significant increase in number of receptors expressed on neonatal cardiac muscle after 10 days in vitro culture [2] | Estrogenic activity (estrogen receptor) | Activity at progesterone receptor (Progesterone receptor) | Activity at glucocorticoid receptor (Glucocorticoid receptor) | Activity at testosterone receptor (Testosterone receptor) |
| --- | --- | --- | --- | --- | --- | --- | --- | --- |
| Smilagenin | not antagonized by tamoxifen | 57 | 18 | 10^−6 M | do not display estrogenic activity | neither compound was found to have any activity | neither compound was found to have any activity | neither compound was found to have any activity |
| C[C@@H]1CC[C@@]2(OC1)O[C@H]1C[C@H]3[C@@H]4C[C@@H](O)[C@@]5(O)C[C@@H](O)CC[C@]5(C)[C@H]4CC[C@]3(C)[C@H]1[C@@H]2C [Anzurogenin D, Anzurogenin-D] | not antagonized by tamoxifen | 22 |  | 10^−6 M | do not display estrogenic activity | neither compound was found to have any activity | neither compound was found to have any activity | neither compound was found to have any activity |
| C[C@H]1CC[C@@]2(OC1)O[C@H]1C[C@H]3[C@@H]4CC[C@@H]5C[C@@H](O)CC[C@]5(C)[C@H]4CC[C@]3(C)[C@H]1[C@@H]2C [Sarsasapogenin, reference compound] |  | 34 |  | 10^−5 M |  |  |  |  |
| Astragaloside [reference compound] |  |  |  | 10^−5 M |  |  |  |  |
